The subject of assay [1] is Fusarium oxysporum. Briefly: Synergistic Growth Inhibition Assay (MIC / FIC index, resazurin, 96-well) on Fusarium oxysporum. The format is cell-based. The method, then:
(§1) In some embodiments, the synergistic action between the pesticidal active ingredient, and the at least one C4-C10 (or alternatively C11 or C12) saturated or unsaturated aliphatic acid components of the pesticidal compositions according to embodiments of the present disclosure was tested using a Synergistic Growth Inhibition Assay, which is derived from and related to a checkerboard assay as is known in the art for testing of combinations of antimicrobial agents. In the Synergistic Growth Inhibition Assay used in accordance with some embodiments of the present disclosure, multiple dilutions of combinations of pesticidal active ingredient and at least one C4-C10 saturated or unsaturated aliphatic acid agents are tested in individual cells for inhibitory activity against a target pest or pathogenic organism. In one such embodiment, the combinations of pesticidal active ingredient and C4-C10 (or alternatively C11 or C12) saturated or unsaturated aliphatic acid agents may preferably be tested in decreasing concentrations. In a further such embodiment, the combinations of pesticidal active ingredient and C4-C10 (or alternatively C11 or C12) saturated or unsaturated aliphatic acid agents may be tested in increasing concentrations. These multiple combinations of the pesticidal active ingredient and at least one C4-C10 (or alternatively C11 or C12) saturated or unsaturated aliphatic acid agents may be prepared in 96-well microtiter plates. In one such embodiment, the Synergistic Growth Inhibition Assay then comprises rows which each contain progressively decreasing concentrations of the pesticidal active ingredient and one or more C4-C10 (or alternatively C11 or C12) saturated or unsaturated aliphatic acid agents to test for the MIC of the agents in combination at which growth of the target pest or pathogen is inhibited. Thus, each well of the microtiter plate is a unique combination of the two agents, at which inhibitory efficacy of the combination against the target pest or pathogen can be determined.
(§2) In one embodiment according to the present disclosure, for each row of microtiter cells in the Synergistic Growth Inhibition Assay, the FIC index is calculated from the lowest concentration of the pesticidal active ingredient and one or more C4-C10 saturated or unsaturated aliphatic acid agents necessary to inhibit growth of a target pest or pathogen. The FIC of each component is derived by dividing the concentration of the agent present in that well of the microtiter plate by the minimal inhibitory concentration (MIC) needed of that agent alone to inhibit growth of the target pest or pathogen. The FIC index is then the sum of these values for both agents in that well of the microtiter plate. The FIC index is calculated for each row as follows:
(§3) FICindex=MICa/MICA+MICb/MICB
(§4) Fractional inhibitory concentration indices may then used as measure of synergy. […] When the FIC index is equal to 1, the combination is additive.
(§5) Then, serial dilutions of these initial compositions in successive wells in the row of the microtiter plate were used to assay the pesticidal composition under the same conditions to determine the concentration of the composition combining the two agents corresponding to the microtiter well in which growth inhibition of the target pest or organism ceases.
Resazurin dye (also known as Alamar blue dye) was used as an indicator to determine the presence of growth or inhibition of growth of Fusarium oxysporum in the wells of the 96 well microtiter plates used in the exemplary Synergistic Growth Inhibition Assay. In addition to the color change of the resazurin dye in the presence of growth of the Fusarium oxysporum, an optical or visual examination of the microtiter well may also be made to additionally determine the presence of growth or inhibition of growth of the Fusarium oxysporum.

Assay [2] concerns Botrytis cinerea. Briefly: Synergistic Growth Inhibition Assay (MIC / FIC index, resazurin, 96-well) on Botrytis cinerea. The format is cell-based. The settings on record: Botrytis cinerea. On the procedure:
as §1, §2, §3, §4, §5
Similarly to as described above, Resazurin was used as an indicator of growth or inhibition of growth of Botrytis cinerea in the exemplary Synergistic Growth Inhibition Assay. In addition to the color change of the resazurin, an optical or visual examination of the microtiter well may also be made to additionally determine the presence of growth or inhibition of growth of the Botrytis cinerea.
Background: Alamar Blue is a resazurin reagent that responds to reducing activity.

The subject of assay [3] is Trichoplusia ni. Briefly: In-vitro insecticidal efficacy of Entrust SC (spinosad) with saturated and unsaturated aliphatic acids on artificial diet, Abbott and Colby formulae. The format is in vivo, Trichoplusia ni (cabbage looper). The following applies: Entrust SC 0.034 ppm ([…] spinosad); aliphatic acid (salt) 500 ppm; Abbott-corrected. On the procedure: An artificial diet suitable for Trichoplusia ni (cabbage looper caterpillar) was prepared from a commercially available general purpose lepidoptera artificial diet premix (General Purpose Lepidoptera Diet available from Frontier Scientific Services, Newark, Del.) mixed in agar media and then heated to liquify the media. The liquid artificial diet media was then used to fill each well of a 96-well treatment plate with 200 uL of artificial diet media, which was allowed to solidify at room temperature and stored at approximately 4 C.
A 20 uL treatment sample of each treatment formulation was then placed on top of the solidified artificial diet media in each well of the 96 well plates and allowed to dry overnight. The following day, one neonate Trichoplusia ni (cabbage looper) larva (hatched from eggs obtained from the Natural Resource Canada insect research facility in Sault-Ste-Marie, ON, Canada) was added to each well of the plate, and their mortality rate was evaluated after 5 days, to determine the insecticidal efficacy of the Entrust® SC treatment alone, each exemplary unsaturated or saturated aliphatic acid (and salt) alone, and each combination of spinosad (as Entrust® SC) and unsaturated or saturated aliphatic acid (and salt). Each experiment contained 3 replicates.
While for SF<1, antagonism is present and for SF=1, the efficacy of the compounds is merely additive.

Assay [4] concerns Alternaria solani. Put plainly: Synergistic Growth Inhibition Assay (MIC / FIC index) on Alternaria solani. The format is cell-based. The following applies: for MIC: Alternaria solani, Compound B alone, read-out: MIC (B). On the procedure:
as §1, §2, §3, §4, §5
Alternatively, other suitable representative pest or pathogen organisms may be used to determine synergy of combinations of pesticidal active ingredient agents and one or more C4-C10 (or alternatively C11 or C12) saturated or unsaturated aliphatic acid agents in accordance with embodiments of the present disclosure. For example, other representative fungal pathogens may be used, such as but not limited to Leptosphaeria maculans, Sclerotinia spp. and Verticillium spp.

The test system of assay [5] is Sclerotinia sclerotiorum. Put plainly: Synergistic Growth Inhibition Assay (MIC / FIC index, resazurin, 96-well) on Sclerotinia sclerotiorum. The settings on record: Sclerotinia sclerotiorum, […], Compound B = saturated aliphatic acid, incubation period of 7 days, read-out: MIC (B). Type of assay: cell-based. The method, then: as §1, §2, §3, §4, §5
Similarly to as described above, Resazurin was used as an indicator of growth or inhibition of growth of Sclerotinia sclerotiorum in the exemplary Synergistic Growth Inhibition Assay. In addition to the color change of the resazurin, an optical or visual examination of the microtiter well may also be made to additionally determine the presence of growth or inhibition of growth of the Sclerotinia sclerotiorum.

Where [6] appears, read: Fusarium oxysporum, 48 h, Compound B alone, Fusarium oxysporum, 48 hours incubation, read-out: MIC (B).
[7] abbreviates: Fusarium oxysporum, 96 h, Table 58, Compound B = saturated aliphatic acid, alone or in combination with oregano oil, incubation for 4 days, read-out: MIC (B).
Setting [8] is: 24 h, Table 75, Compound B = saturated aliphatic acid, alone or in combination with wintergreen oil, incubation period of 24 hours, read-out: MIC (B).
[9] abbreviates: 24 h, Table 78, Compound B = saturated aliphatic acid, alone or in combination with oregano oil, incubation period of 24 hours, read-out: MIC (B).

Like-named read-outs stand apart in the source and are kept apart here.

As usually defined, the MIC is the lowest concentration that inhibits growth of the organism. As for `CCCCCC(=O)O` [Hexanoic acid, hexanoic acid], the MIC in assay [1] (Fusarium oxysporum, 24 h, read-out: MIC (B), Table 51, Compound B = saturated aliphatic acid, alone or in combination with thyme oil, incubation for 24 hours) stood at 78.1 µg/mL; in assay [1] (Fusarium oxysporum, 24 h, read-out: MIC (B), Table 52, Compound B = saturated aliphatic acid, alone or in combination with garlic oil, incubation for 24 hours), 156 µg/mL; in assay [1] (Fusarium oxysporum, 96 h, read-out: MIC (B), Table 54, Compound B = saturated aliphatic acid, alone or in combination with peppermint oil, incubation for 4 days), 156 µg/mL; in assay [1] (Fusarium oxysporum, 96 h, read-out: MIC (B), Table 58, Compound B = saturated aliphatic acid, alone or in combination with oregano oil, incubation for 4 days) it was 156 µg/mL; in assay [2] (24 h, read-out: MIC (B), Table 75, Compound B = saturated aliphatic acid, alone or in combination with wintergreen oil, incubation period of 24 hours), 39.1 µg/mL; in assay [2] (24 h, read-out: MIC (B), Table 78, Compound B = saturated aliphatic acid, alone or in combination with oregano oil, incubation period of 24 hours), 156 µg/mL. In addition, the MIC was found to be 312 µg/mL in assay [2] (96 h, read-out: MIC (B), Table 74, Compound B = saturated aliphatic acid, alone or in combination with thyme oil, incubation period of 4 days) and 312 µg/mL in assay [2] (96 h, read-out: MIC (B), Table 76, Compound B = saturated aliphatic acid, alone or in combination with spearmint oil, incubation period of 4 days). Besides, in assay [2] (Compound B (aliphatic acid) alone, 2-fold dilutions, incubation period of 48 hours), the “MIC (B)” value came out at 78.12 µg/mL. The “Observed Efficacy, W (%)” value in assay [3] is reported as 27.3%.

In the case of Mancozeb [reference compound], the “MIC (A)” value in assay [2] (Compound A alone, incubation period of 48 hours) is 31.25 µg/mL; in assay [4] (Compound A alone, 7 days incubation) it was 500 µg/mL.

In the case of `CC/C=C/CC(=O)O` [Trans-3-hexenoic acid, trans-3-hexenoic acid], in assay [3], the “Observed Efficacy, W (%)” value is reported as 0%.

Take `CCCCCCCCC(C)C(=O)O` (stereo not shown) [2-methyldecanoic acid]: the MIC in assay [1] (setting [6]) was determined as 62.5 µg/mL; in assay [2] (48 h, Compound A alone, incubation period of 48 hours, read-out: MIC (A)), 15.6 µg/mL; in assay [4] (7 days incubation) it was 1000 µg/mL; in assay [4] (incubation period of 7 days), 125 µg/mL.

For `CCCCCCCC(=O)O` [Octanoic acid, octanoic acid], the “Observed Efficacy, W (%)” value in assay [3] was determined as 4.5%.

`CCCCCCC=CCC(=O)O` [3-Decenoic acid, 3-decenoic acid]: the “MIC (B)” value in assay [1] (Compound B (aliphatic acid) alone, Fusarium oxysporum, incubation period of 48 hours) came out at 312.5 µg/mL. Besides, the “Observed Efficacy, W (%)” value in assay [3] came out at 0%.

With `CCC/C=C/C(=O)O` [Trans-2-hexenoic acid, trans-2-hexenoic acid], the “MIC (B)” value in assay [1] (Compound B alone, 24 hour incubation) was found to be 312.5 µg/mL. Also, the “Observed Efficacy, W (%)” value in assay [3] was found to be 0%.

Regarding `CCCCCCCC(=O)[O-].[K+]` [Octanoic acid, K-salt], in assay [3], the “Observed Efficacy, W (%)” value was determined as 0%.

With `CCCCCCCCCC(=O)O` [Decanoic acid, decanoic acid], the MIC in assay [1] (Fusarium oxysporum, 24 h, Table 53, Compound B = saturated aliphatic acid, alone or in combination with wintergreen oil, incubation for 24 hours, read-out: MIC (B)) was found to be 62.5 µg/mL; in assay [1] (Fusarium oxysporum, 96 h, Compound B alone, incubation for 4 days, read-out: MIC (B)) it was 62.5 µg/mL. Moreover, the “Observed Efficacy, W (%)” value in assay [3] came out at 0%.

For the compound `CCCCCCC(=O)O` [Heptanoic acid, heptanoic acid], the MIC in assay [1] (Fusarium oxysporum, 96 h, Table 54, Compound B = saturated aliphatic acid, alone or in combination with peppermint oil, incubation for 4 days, read-out: MIC (B)) stood at 312 µg/mL; in assay [1] (Fusarium oxysporum, 96 h, Table 55, Compound B = saturated aliphatic acid, alone or in combination with spearmint oil, incubation for 4 days, read-out: MIC (B)), 156 µg/mL; in assay [1] (setting [7]), 78.1 µg/mL; in assay [2] (setting [8]) it was 39.1 µg/mL; in assay [2] (setting [9]), 78.1 µg/mL; in assay [2] (96 h, Table 76, Compound B = saturated aliphatic acid, alone or in combination with spearmint oil, incubation period of 4 days, read-out: MIC (B)), 78.1 µg/mL. The MIC in assay [5] (Table 68, alone or in combination with clove leaf oil) stood at 78.1 µg/mL; in assay [5] (Table 70, alone or in combination with rosemary oil), 78.1 µg/mL. The “Observed Efficacy, W (%)” value in assay [3] is on record as 9.1%.

As for `CCCCCCC/C=C/C(=O)O` [Trans-2 decenoic acid], in assay [2] (Compound B alone, incubation period of 48 hours), the “MIC (B)” value was found to be 39.06 µg/mL. In assay [3], the “Observed Efficacy, W (%)” value is reported as 0%.

Consider `C/C=C/C=C/C(=O)O` [(2E,4E)-2,4 hexadienoic acid], for which, in assay [3], the “Observed Efficacy, W (%)” value was 4.5%.

Turning to `CCCCCCCCC(=O)O` [Nonanoic acid, nonanoic acid], the MIC in assay [1] (Fusarium oxysporum, 24 h, read-out: MIC (B), Table 53, Compound B = saturated aliphatic acid, alone or in combination with wintergreen oil, incubation for 24 hours) was found to be 156 µg/mL; in assay [1] (setting [7]) it was 78.1 µg/mL; in assay [1] (Fusarium oxysporum, 96 h, read-out: MIC (B), Table 55, Compound B = saturated aliphatic acid, alone or in combination with spearmint oil, incubation for 4 days), 156 µg/mL; in assay [2] (setting [8]), 39.1 µg/mL; in assay [2] (setting [9]) it was 78.1 µg/mL. Also, in assay [3], the “Observed Efficacy, W (%)” value amounted to 0%.

For `CCCCCCC(C)C(=O)O` (stereo not shown) [2-methyloctanoic acid], the MIC in assay [1] (setting [6]) was 156 µg/mL; in assay [4] (7 days incubation), 625 µg/mL; in assay [4] (incubation period of 7 days), 156 µg/mL.

As for `CCCCCCCC/C=C/C(=O)O` [Trans-2 undecenoic acid], the “Observed Efficacy, W (%)” value in assay [3] is listed as 27.3%.

On to `C=CCCCCCC(=O)O` [7-octenoic acid], for which the “Observed Efficacy, W (%)” value in assay [3] is recorded as 0%.

The values are drawn from patent US20210352895A1, “SYNERGISTIC PESTICIDAL COMPOSITIONS AND METHODS FOR DELIVERY OF ACTIVE INGREDIENTS” (0903608 B.C. Ltd., priority 2018, published 2021).
